Test system: 276233-004-R-J1-PDC KRAS spheroids with HUVEC/MSC, viability
Experiment: Anticancer human tumor 276233-004-R-J1-PDC patient-derived colon adenocarcinoma cell line growth inhibition [KRAS2]
Settings: for viability, T/C: stronger effect = lower value
Method in brief: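 Combination screen of spheroid viability in tumor-cell co-cultures with endothelial (HUVEC) and mesenchymal stem cell stroma. Each agent was tested in half-log dilutions, topping at clinical Cmax or at 10 microM without a known Cmax.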

[1] = curve of first compound, second compound 0.1 µM
[2] = curve of first compound, second compound 0.316 µM
[3] = curve of first compound, second compound 1 µM
[4] = curve of first compound, second compound 3.16 µM
[5] = curve of first compound, second compound 10 µM
[6] = second compound 0.1 µM, first compound 0.000316 µM
[7] = second compound 0.1 µM, first compound 0.001 µM
[8] = second compound 0.1 µM, first compound 0.00316 µM
[9] = second compound 0.1 µM, first compound 0.01 µM
[10] = second compound 0.1 µM, first compound 0.0316 µM
[11] = second compound 0.1 µM, first compound 0.1 µM
[12] = second compound 0.316 µM, first compound 0.000316 µM
[13] = second compound 0.316 µM, first compound 0.001 µM
[14] = second compound 0.316 µM, first compound 0.00316 µM
[15] = second compound 0.316 µM, first compound 0.01 µM
[16] = second compound 0.316 µM, first compound 0.0316 µM
[17] = second compound 0.316 µM, first compound 0.1 µM
[18] = second compound 1 µM, first compound 0.000316 µM
[19] = second compound 1 µM, first compound 0.001 µM
[20] = second compound 1 µM, first compound 0.00316 µM
[21] = second compound 1 µM, first compound 0.01 µM
[22] = second compound 1 µM, first compound 0.0316 µM
[23] = second compound 1 µM, first compound 0.1 µM
[24] = second compound 3.16 µM, first compound 0.000316 µM
[25] = second compound 3.16 µM, first compound 0.001 µM
[26] = second compound 3.16 µM, first compound 0.00316 µM
[27] = second compound 3.16 µM, first compound 0.01 µM
[28] = second compound 3.16 µM, first compound 0.0316 µM
[29] = second compound 3.16 µM, first compound 0.1 µM
[30] = second compound 10 µM, first compound 0.000316 µM
[31] = second compound 10 µM, first compound 0.001 µM
[32] = second compound 10 µM, first compound 0.00316 µM
[33] = second compound 10 µM, first compound 0.01 µM
[34] = second compound 10 µM, first compound 0.0316 µM
[35] = second compound 10 µM, first compound 0.1 µM
[36] = second compound 0.1 µM, first compound 0.316 µM
[37] = second compound 0.1 µM, first compound 1 µM
[38] = second compound 0.1 µM, first compound 3.16 µM
[39] = second compound 0.316 µM, first compound 0.316 µM
[40] = second compound 0.316 µM, first compound 1 µM
[41] = second compound 0.316 µM, first compound 3.16 µM
[42] = second compound 1 µM, first compound 0.316 µM
[43] = second compound 1 µM, first compound 1 µM
[44] = second compound 1 µM, first compound 3.16 µM
[45] = second compound 3.16 µM, first compound 0.316 µM
[46] = second compound 3.16 µM, first compound 1 µM
[47] = second compound 3.16 µM, first compound 3.16 µM
[48] = second compound 10 µM, first compound 0.316 µM
[49] = second compound 10 µM, first compound 1 µM
[50] = second compound 10 µM, first compound 3.16 µM
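Further: cells exposed to agents for seven days before viability read.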
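Wherever viability, T/C is given: 100% = DMSO vehicle control wells and lower values mean fewer viable cells.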

Structure (SMILES)	IC50 [1] [nM]	IC50 [2] [nM]	IC50 [3] [nM]	IC50 [4] [nM]	IC50 [5] [nM]	viability, T/C [9] [%]	viability, T/C [10] [%]	viability, T/C [11] [%]	viability, T/C [15] [%]	viability, T/C [16] [%]	viability, T/C [17] [%]	viability, T/C [21] [%]	viability, T/C [22] [%]	viability, T/C [23] [%]	viability, T/C [27] [%]	viability, T/C [28] [%]	viability, T/C [29] [%]	viability, T/C [33] [%]	viability, T/C [34] [%]	viability, T/C [35] [%]	other results
CCN1CCN(Cc2ccc(Nc3ncc(F)c(-c4cc(F)c5nc(C)n(C(C)C)c5c4)n3)nc2)CC1	–	–	–	–	–	–	–	–	–	–	–	–	–	–	–	–	–	–	–	–	viability, T/C (compound 0.01 µM): 92.1% [middle of 5 runs]; viability, T/C (compound 0.1 µM): 82.8% [middle of 5 runs]; viability, T/C (compound 0.316 µM): 95.5% [middle of 5 runs]; viability, T/C (compound 1 µM): 106% [middle of 5 runs]; IC50 (curve of compound): > 1000 nM
Cn1ncnc1[C@H]1c2n[nH]c(=O)c3cc(F)cc(c23)N[C@@H]1c1ccc(F)cc1 + CNCc1ccccc1-c1csc(C(C)Nc2nc(C)nc3cc(OC)c(OC)cc23)c1	> 100	> 100	> 100	< 0.316	< 0.316	107	87.6	120	124	83.2	98.5	68.2	50.2	78	0.62	0.53	0.74	0.2	0.18	2.9	viability, T/C [6]: 113%; viability, T/C [7]: 115%; viability, T/C [8]: 98.2%; viability, T/C [12]: 96.1%; viability, T/C [13]: 119%; viability, T/C [14]: 116%; viability, T/C [18]: 56.7%; viability, T/C [19]: 69.5%; viability, T/C [20]: 75.1%; viability, T/C [24]: 9.27%; viability, T/C [25]: 0.64%; viability, T/C [26]: 0.7%; viability, T/C [30]: 0.22%; viability, T/C [31]: 0.22%; viability, T/C [32]: 0.22%
CC(C)n1nc(-c2ccc3oc(N)nc3c2)c2c(N)ncnc21 + CNCc1ccccc1-c1csc(C(C)Nc2nc(C)nc3cc(OC)c(OC)cc23)c1	42.8	90.1	6.83	< 0.316	< 0.316	59.5	53.2	44.4	55.5	45	54.5	39.6	43.2	51.6	0.43	1.9	0.88	0.26	0.21	0.37	viability, T/C [6]: 88.7%; viability, T/C [7]: 76.2%; viability, T/C [8]: 66.1%; viability, T/C [12]: 82.3%; viability, T/C [13]: 70.7%; viability, T/C [14]: 66.2%; viability, T/C [18]: 57.9%; viability, T/C [19]: 63.7%; viability, T/C [20]: 60.5%; viability, T/C [24]: 0.56%; viability, T/C [25]: 0.43%; viability, T/C [26]: 0.72%; viability, T/C [30]: 0.94%; viability, T/C [31]: 0.17%; viability, T/C [32]: 1.02%
CN(C)C/C=C/C(=O)Nc1cc2c(Nc3ccc(F)c(Cl)c3)ncnc2cc1O[C@H]1CCOC1	–	–	–	–	–	–	–	–	–	–	–	–	–	–	–	–	–	–	–	–	viability, T/C (compound 0.000316 µM): 98.5% [middle of 5 runs]; viability, T/C (compound 0.001 µM): 92.7% [middle of 5 runs]; viability, T/C (compound 0.00316 µM): 90.8% [middle of 5 runs]; viability, T/C (compound 0.01 µM): 95.8% [middle of 5 runs]; viability, T/C (compound 0.0316 µM): 97.7% [middle of 5 runs]; viability, T/C (compound 0.1 µM): 90% [middle of 5 runs]; IC50 (curve of compound): > 100 nM
COc1cc(Nc2ncc3c(n2)-c2ccc(Cl)cc2C(c2c(F)cccc2OC)=NC3)ccc1C(=O)O + CNCc1ccccc1-c1csc(C(C)Nc2nc(C)nc3cc(OC)c(OC)cc23)c1	> 10000	> 10000	> 10000	< 31.6	< 31.6	–	103	110	–	107	93	–	80.4	86.1	–	5.21	1.97	–	2.44	3.58	viability, T/C [36]: 75.7%; viability, T/C [37]: 104%; viability, T/C [38]: 95.7%; viability, T/C (second compound 0.1 µM, first compound 10 µM): 84.2%; viability, T/C [39]: 99.1%; viability, T/C [40]: 97.7%; viability, T/C [41]: 91.9%; viability, T/C (second compound 0.316 µM, first compound 10 µM): 94.6%; viability, T/C [42]: 111%; viability, T/C [43]: 85%; viability, T/C [44]: 72.1%; viability, T/C (second compound 1 µM, first compound 10 µM): 66.3%; viability, T/C [45]: 1.67%; viability, T/C [46]: 4.48%; viability, T/C [47]: 4.94%; viability, T/C (second compound 3.16 µM, first compound 10 µM): 0.76%; viability, T/C [48]: 0.22%; viability, T/C [49]: 0.22%; viability, T/C [50]: 0.73%; viability, T/C (second compound 10 µM, first compound 10 µM): 0.99%
CC(=O)OC12COC1CC(O)C1(C)C(=O)C(O)C3=C(C)C(OC(=O)C(O)C(NC(=O)OC(C)(C)C)c4ccccc4)CC(O)(C(OC(=O)c4ccccc4)C21)C3(C)C (configuration not stated) + C=CC(=O)N1CCN(c2nc(=O)n(-c3c(C)ccnc3C(C)C)c3nc(-c4c(O)cccc4F)c(F)cc23)C(C)C1	> 3160	> 3160	> 3160	> 3160	> 3160	87	96.5	80.4	100	109	79.4	90.7	85.3	71.6	95.5	84.9	77.8	79.2	72.2	97.6	viability, T/C [36]: 77.4%; viability, T/C [37]: 86.3%; viability, T/C [38]: 97.8%; viability, T/C [39]: 70.5%; viability, T/C [40]: 90.1%; viability, T/C [41]: 89.5%; viability, T/C [42]: 75%; viability, T/C [43]: 88%; viability, T/C [44]: 99.2%; viability, T/C [45]: 92.8%; viability, T/C [46]: 79.5%; viability, T/C [47]: 90.2%; viability, T/C [48]: 64.2%; viability, T/C [49]: 103%; viability, T/C [50]: 129%
CC1COCCN1c1cc(-c2ccnn2C)c2ccnc(-c3ccn[nH]3)c2n1 (configuration not stated) + COc1cc2nc(C)nc(NC(C)c3cc(N)cc(C(F)(F)F)c3)c2cc1OC1CCOC1	1470	706	1860	474	< 10	81.3	90.3	75.8	80	86.1	74.2	94.5	82	76.9	80.6	82.6	70	37.4	46.5	45.8	viability, T/C [36]: 71.4%; viability, T/C [37]: 54.5%; viability, T/C [38]: 40.6%; viability, T/C [39]: 58.9%; viability, T/C [40]: 42.6%; viability, T/C [41]: 48.6%; viability, T/C [42]: 64.8%; viability, T/C [43]: 53.6%; viability, T/C [44]: 46.3%; viability, T/C [45]: 55.8%; viability, T/C [46]: 37.5%; viability, T/C [47]: 48.4%; viability, T/C [48]: 34.1%; viability, T/C [49]: 36.9%; viability, T/C [50]: 24.8%

— PubChem BioAssay AID1963873 (Molecular Pharmacology Branch, DTP, NCI, 2024)
